Laboratory results reported in PubChem BioAssay (NCI).
Where “and” joins values, the source holds several entries; their conditions need not be identical. Equal values may be shown once.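 Following 48 hours of exposure in 96-well plates, responses at five concentrations were used to interpolate endpoints linearly. At the GI50, growth is halved. TGI is the concentration that stops growth completely.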

Legend:
Test in all cases: DTP human tumour cell line panel, 48 h
UACC-257 melanoma = system: UACC-257 melanoma
OVCAR-3 ovarian = system: OVCAR-3 ovarian
MOLT-4 leukemia = system: MOLT-4 leukemia
SF-295 CNS = system: SF-295 CNS
ACHN renal = system: ACHN renal
MDA-MB-435 = system: MDA-MB-435
OVCAR-4 ovarian = system: OVCAR-4 ovarian
786-0 renal = system: 786-0 renal
PC-3 prostate = system: PC-3 prostate
HOP-62 NSCLC = system: HOP-62 NSCLC

SMILES: CC(=O)O[C@H]1C(=O)[C@@]2(C)C([C@H](OC(=O)c3ccccc3)[C@]3(O)C[C@H](OC(=O)[C@H](O)[C@@H](NC(=O)c4ccc(Cl)cc4)c4ccccc4)C(C)=C1C3(C)C)C1(OC(C)=O)CO[C@@H]1C[C@@H]2O (stereo partly specified)
- GI50 (UACC-257 melanoma): 0.013 µM
- TGI (UACC-257 melanoma): 25 µM and 36.8 µM
- TGI (OVCAR-3 ovarian): 0.108 µM
- TGI (MOLT-4 leukemia): 25 µM and 4.77 µM
- GI50 (SF-295 CNS): 0.177 µM
- GI50 (ACHN renal): 10.3 µM
- TGI (ACHN renal): 25 µM and > 100 µM
- TGI (MDA-MB-435): 0.0126 µM
- GI50 (OVCAR-4 ovarian): 4.89 µM
- TGI (OVCAR-4 ovarian): 25 µM and 68 µM
- GI50 (786-0 renal): 0.045 µM
- TGI (786-0 renal): 3.09 µM and 29.7 µM
- TGI (PC-3 prostate): 0.217 µM
- GI50 (HOP-62 NSCLC): 0.261 µM
- TGI (HOP-62 NSCLC): 25 µM and 25.2 µM

SMILES: Cc1nc2sc(C(=O)Nc3cccc(Cl)c3)c(N)c2cc1C(O)c1ccccc1 (stereo unspecified)
- GI50 (UACC-257 melanoma): 1.39 µM
- TGI (UACC-257 melanoma): 22.2 µM
- GI50 (OVCAR-3 ovarian): 0.587 µM
- TGI (OVCAR-3 ovarian): 21.6 µM
- GI50 (MOLT-4 leukemia): 0.611 µM
- TGI (MOLT-4 leukemia): > 100 µM
- GI50 (SF-295 CNS): 1.21 µM
- TGI (SF-295 CNS): 13.5 µM
- GI50 (ACHN renal): 0.884 µM
- TGI (ACHN renal): 13.4 µM
- GI50 (MDA-MB-435): 0.203 µM
- TGI (MDA-MB-435): 0.465 µM
- GI50 (OVCAR-4 ovarian): 4.64 µM
- TGI (OVCAR-4 ovarian): 31.2 µM
- GI50 (786-0 renal): 2.47 µM
- TGI (786-0 renal): 20.7 µM
- GI50 (PC-3 prostate): 2.78 µM
- TGI (PC-3 prostate): 25.1 µM
- GI50 (HOP-62 NSCLC): 1.45 µM
- TGI (HOP-62 NSCLC): 25.5 µM

SMILES: Nc1nc2c([nH]1)c1[nH]c3ccccc3c1c1[nH]c3ccccc3c21
- GI50 (UACC-257 melanoma): 18.5 µM
- TGI (UACC-257 melanoma): 33.4 µM
- GI50 (OVCAR-3 ovarian): 12.6 µM
- TGI (OVCAR-3 ovarian): 25.7 µM
- GI50 (MOLT-4 leukemia): 1.89 µM
- TGI (MOLT-4 leukemia): 6.16 µM
- GI50 (SF-295 CNS): 13.9 µM
- TGI (SF-295 CNS): 27.5 µM
- GI50 (ACHN renal): 12 µM
- TGI (ACHN renal): 24.4 µM
- GI50 (MDA-MB-435): 9.73 µM
- TGI (MDA-MB-435): 22 µM
- GI50 (OVCAR-4 ovarian): 15.4 µM
- TGI (OVCAR-4 ovarian): 35.3 µM
- GI50 (786-0 renal): 9.44 µM
- TGI (786-0 renal): 22.6 µM
- GI50 (PC-3 prostate): 11 µM
- TGI (PC-3 prostate): 23.1 µM
- GI50 (HOP-62 NSCLC): 13.8 µM
- TGI (HOP-62 NSCLC): 27.3 µM

SMILES: Fc1cccc(C2ON=C(c3ccccc3)N2C23CC4CC(CC(C4)C2)C3)c1 (stereo unspecified)
- TGI (UACC-257 melanoma): > 10 µM
- TGI (OVCAR-3 ovarian): > 10 µM
- TGI (MOLT-4 leukemia): > 10 µM
- TGI (SF-295 CNS): > 10 µM
- TGI (ACHN renal): > 10 µM
- TGI (MDA-MB-435): > 10 µM
- TGI (OVCAR-4 ovarian): > 10 µM
- TGI (786-0 renal): > 10 µM
- TGI (PC-3 prostate): > 10 µM
- TGI (HOP-62 NSCLC): > 10 µM

SMILES: COc1ccc2c(c1)CCC1C2CCC2(C)C(NC(=O)CCCCC3CCSS3)CCC12 (stereo unspecified)
- GI50 (UACC-257 melanoma): 31.8 µM
- TGI (UACC-257 melanoma): > 100 µM
- GI50 (OVCAR-3 ovarian): 12.6 µM
- TGI (OVCAR-3 ovarian): > 100 µM
- GI50 (MOLT-4 leukemia): 4.15 µM
- TGI (MOLT-4 leukemia): > 100 µM
- GI50 (SF-295 CNS): > 100 µM
- TGI (SF-295 CNS): > 100 µM
- GI50 (ACHN renal): 27.6 µM
- TGI (ACHN renal): > 100 µM
- GI50 (MDA-MB-435): 9.3 µM
- TGI (MDA-MB-435): > 100 µM
- GI50 (OVCAR-4 ovarian): 23 µM
- TGI (OVCAR-4 ovarian): > 100 µM
- GI50 (786-0 renal): > 100 µM
- TGI (786-0 renal): > 100 µM
- GI50 (PC-3 prostate): 7.18 µM
- TGI (PC-3 prostate): > 100 µM
- GI50 (HOP-62 NSCLC): > 100 µM
- TGI (HOP-62 NSCLC): > 100 µM

SMILES: CCCCCCC1CCCCN1C(c1ccccc1)C(O)c1ccccc1 (stereo unspecified)
- GI50 (UACC-257 melanoma): 4.79 µM
- TGI (UACC-257 melanoma): 18.1 µM
- GI50 (OVCAR-3 ovarian): 8.49 µM
- TGI (OVCAR-3 ovarian): 20.8 µM
- GI50 (MOLT-4 leukemia): 4.96 µM
- TGI (MOLT-4 leukemia): 19.4 µM
- GI50 (SF-295 CNS): 4.31 µM
- TGI (SF-295 CNS): 18.4 µM
- GI50 (ACHN renal): 10 µM
- TGI (ACHN renal): 21.6 µM
- GI50 (MDA-MB-435): 4.71 µM
- TGI (MDA-MB-435): 19.2 µM
- GI50 (OVCAR-4 ovarian): 7.98 µM
- TGI (OVCAR-4 ovarian): 21.7 µM
- GI50 (786-0 renal): 3.97 µM
- TGI (786-0 renal): 13.6 µM
- GI50 (PC-3 prostate): 6.93 µM
- TGI (PC-3 prostate): 20.6 µM
- GI50 (HOP-62 NSCLC): 10.3 µM
- TGI (HOP-62 NSCLC): 22.5 µM

SMILES: COc1cc(OC)c(OC)cc1/C=C\c1ccnc2ccccc12
- TGI (UACC-257 melanoma): > 100 µM
- TGI (OVCAR-3 ovarian): 7.44 µM
- TGI (MOLT-4 leukemia): > 90.2 µM
- TGI (SF-295 CNS): 3.55 µM
- TGI (ACHN renal): > 100 µM
- TGI (MDA-MB-435): 0.534 µM
- TGI (OVCAR-4 ovarian): > 100 µM
- TGI (786-0 renal): 61.6 µM
- TGI (PC-3 prostate): > 100 µM
- TGI (HOP-62 NSCLC): > 62.1 µM

SMILES: NCC[PH+](c1ccccc1)c1ccccc1.NCC[PH+](c1ccccc1)c1ccccc1.[Cl-].[Pt+4]
- GI50 (UACC-257 melanoma): > 100 µM
- TGI (UACC-257 melanoma): > 100 µM
- GI50 (OVCAR-3 ovarian): > 100 µM
- TGI (OVCAR-3 ovarian): > 100 µM
- GI50 (MOLT-4 leukemia): > 51.3 µM
- TGI (MOLT-4 leukemia): > 100 µM
- GI50 (SF-295 CNS): > 100 µM
- TGI (SF-295 CNS): > 100 µM
- GI50 (ACHN renal): > 100 µM
- TGI (ACHN renal): > 100 µM
- GI50 (MDA-MB-435): > 100 µM
- TGI (MDA-MB-435): > 100 µM
- GI50 (OVCAR-4 ovarian): > 100 µM
- TGI (OVCAR-4 ovarian): > 100 µM
- GI50 (786-0 renal): > 100 µM
- TGI (786-0 renal): > 100 µM
- GI50 (PC-3 prostate): > 100 µM
- TGI (PC-3 prostate): > 100 µM
- GI50 (HOP-62 NSCLC): > 100 µM
- TGI (HOP-62 NSCLC): > 100 µM

SMILES: CSc1ccc2c(c1)N(CCCN(C)C)c1ccccc1S2
- TGI (UACC-257 melanoma): 19.9 µM
- TGI (OVCAR-3 ovarian): 27.2 µM
- TGI (MOLT-4 leukemia): 20 µM
- TGI (SF-295 CNS): 26.8 µM
- TGI (ACHN renal): 24.1 µM
- TGI (MDA-MB-435): 17 µM
- TGI (OVCAR-4 ovarian): 24.5 µM
- TGI (786-0 renal): 28.5 µM
- TGI (PC-3 prostate): 23.8 µM
- TGI (HOP-62 NSCLC): 28.4 µM

SMILES: CCCC/C=C1/CCC(CN(C)C)C1=O (stereo unspecified)
- TGI (UACC-257 melanoma): 5.26 µM
- TGI (OVCAR-3 ovarian): 3.72 µM
- GI50 (MOLT-4 leukemia): 1.21 µM
- TGI (MOLT-4 leukemia): 4.15 µM
- TGI (SF-295 CNS): 13 µM
- TGI (ACHN renal): 4.6 µM
- TGI (MDA-MB-435): 23.1 µM
- TGI (OVCAR-4 ovarian): 8.27 µM
- TGI (786-0 renal): 2.9 µM
- TGI (PC-3 prostate): 27.2 µM
- TGI (HOP-62 NSCLC): 35.2 µM

SMILES: C=C1CCC2C(C)(CO)C(O)CCC2(C)C1C/C=C1\C(=O)OCC1O (stereo unspecified)
- TGI (UACC-257 melanoma): 73.8 µM
- TGI (OVCAR-3 ovarian): 21.2 µM
- TGI (MOLT-4 leukemia): > 100 µM
- TGI (SF-295 CNS): 52.5 µM
- TGI (ACHN renal): > 100 µM
- TGI (MDA-MB-435): 22.9 µM
- TGI (OVCAR-4 ovarian): 23.5 µM
- TGI (786-0 renal): 18.1 µM
- TGI (PC-3 prostate): 71.6 µM
- TGI (HOP-62 NSCLC): 54.4 µM
